Experimental data reported in the supplement of paper PMC10307832.

Tests used:
Test in all cases: relative viability (nuclei count vs DMSO), 5 days (fraction); higher = more cells survive
201T = test system: 201T
Method in brief: (§1)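 For relative viability, nuclei counts in treated wells were divided by those in vehicle wells. Lung cancer cell lines had been pin-tool dosed in 1536-well plates the day after seeding and cultured for 5 days, then fixed and stained in one step (final 0.05% Triton X-100, 1% formaldehyde, 1 ug/ml Hoechst) and imaged at 4×. Doses were one drug alone or a fixed anchor-drug dose plus five library-drug doses (not always all listed) in √10 steps, and values are duplicate-plate medians.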

BEN = test system: BEN
Method in brief: as §1

EMC-BAC-2 = test system: EMC-BAC-2
Method in brief: as §1

HARA = test system: HARA
Method in brief: as §1

LCLC-103H = test system: LCLC-103H
Method in brief: as §1

LOU-NH91 = test system: LOU-NH91
Method in brief: as §1

NCI-H1395 = test system: NCI-H1395
Method in brief: as §1

NCI-H1666 = test system: NCI-H1666
Method in brief: as §1

NCI-H1993 = test system: NCI-H1993
Method in brief: as §1

NCI-H2009 = test system: NCI-H2009
Method in brief: as §1

NCI-H2023 = test system: NCI-H2023
Method in brief: as §1

NCI-H2087 = test system: NCI-H2087
Method in brief: as §1

NCI-H2126 = test system: NCI-H2126
Method in brief: as §1

NCI-H2347 = test system: NCI-H2347
Method in brief: as §1

NCI-H23 = test system: NCI-H23
Method in brief: as §1

NCI-H3122 = test system: NCI-H3122
Method in brief: as §1

NCI-H441 = test system: NCI-H441
Method in brief: as §1

NCI-H596 = test system: NCI-H596
Method in brief: as §1

NCI-H647 = test system: NCI-H647
Method in brief: as §1

NCI-H650 = test system: NCI-H650
Method in brief: as §1

NCI-H727 = test system: NCI-H727
Method in brief: as §1

NCI-H838 = test system: NCI-H838
Method in brief: as §1

NC(=O)Nc1cc(-c2cccc(F)c2)sc1C(=O)N[C@H]1CCCNC1 [AZD7762] + COc1cc2c(Oc3ccc(NC(=O)C4(C(=O)Nc5ccc(F)cc5)CC4)cc3F)ccnc2cc1OCCCN1CCOCC1 [Foretinib] (partner 0.25 µM)
relative viability (201T; first compound 0.01 µM): 1.17
relative viability (201T; first compound 0.03162 µM): 1.26
relative viability (201T; first compound 0.1 µM): 1.11
relative viability (201T; first compound 0.3162 µM): 0.961
relative viability (201T; first compound 1 µM): 0.279
relative viability (BEN; first compound 0.01 µM): 0.714
relative viability (BEN; first compound 0.03162 µM): 0.747
relative viability (BEN; first compound 0.1 µM): 0.621
relative viability (BEN; first compound 0.3162 µM): 0.507
relative viability (BEN; first compound 1 µM): 0.596
relative viability (EMC-BAC-2; first compound 0.01 µM): 1.08
relative viability (EMC-BAC-2; first compound 0.03162 µM): 1
relative viability (EMC-BAC-2; first compound 0.1 µM): 1.08
relative viability (EMC-BAC-2; first compound 0.3162 µM): 1.04
relative viability (EMC-BAC-2; first compound 1 µM): 0.89
relative viability (HARA; first compound 0.01 µM): 0.888
relative viability (HARA; first compound 0.03162 µM): 0.932
relative viability (HARA; first compound 0.1 µM): 0.91
relative viability (HARA; first compound 0.3162 µM): 0.866
relative viability (HARA; first compound 1 µM): 0.197
relative viability (LCLC-103H; first compound 0.01 µM): 0.815
relative viability (LCLC-103H; first compound 0.03162 µM): 0.829
relative viability (LCLC-103H; first compound 0.1 µM): 0.82
relative viability (LCLC-103H; first compound 0.3162 µM): 0.764
relative viability (LCLC-103H; first compound 1 µM): 0.823
relative viability (LOU-NH91; first compound 0.01 µM): 0.925
relative viability (LOU-NH91; first compound 0.03162 µM): 0.947
relative viability (LOU-NH91; first compound 0.1 µM): 0.96
relative viability (LOU-NH91; first compound 0.3162 µM): 0.93
relative viability (LOU-NH91; first compound 1 µM): 0.737
relative viability (NCI-H1395; first compound 0.01 µM): 0.974
relative viability (NCI-H1395; first compound 0.03162 µM): 1.08
relative viability (NCI-H1395; first compound 0.1 µM): 1.1
relative viability (NCI-H1395; first compound 0.3162 µM): 0.91
relative viability (NCI-H1395; first compound 1 µM): 0.452
relative viability (NCI-H1666; first compound 0.01 µM): 1.03
relative viability (NCI-H1666; first compound 0.03162 µM): 1.07
relative viability (NCI-H1666; first compound 0.1 µM): 1.14
relative viability (NCI-H1666; first compound 0.3162 µM): 1.12
relative viability (NCI-H1666; first compound 1 µM): 0.849
relative viability (NCI-H1993; first compound 0.01 µM): 0.772
relative viability (NCI-H1993; first compound 0.03162 µM): 0.878
relative viability (NCI-H1993; first compound 0.1 µM): 0.801
relative viability (NCI-H1993; first compound 0.3162 µM): 0.821
relative viability (NCI-H1993; first compound 1 µM): 0.708
relative viability (NCI-H2009; first compound 0.01 µM): 1.25
relative viability (NCI-H2009; first compound 0.03162 µM): 1.27
relative viability (NCI-H2009; first compound 0.1 µM): 1.27
relative viability (NCI-H2009; first compound 0.3162 µM): 1.13
relative viability (NCI-H2009; first compound 1 µM): 0.962
relative viability (NCI-H2023; first compound 0.01 µM): 0.788
relative viability (NCI-H2023; first compound 0.03162 µM): 0.529
relative viability (NCI-H2023; first compound 0.1 µM): 0.652
relative viability (NCI-H2023; first compound 0.3162 µM): 0.393
relative viability (NCI-H2023; first compound 1 µM): 0.098
relative viability (NCI-H2087; first compound 0.01 µM): 1.28
relative viability (NCI-H2087; first compound 0.03162 µM): 1.12
relative viability (NCI-H2087; first compound 0.1 µM): 1.34
relative viability (NCI-H2087; first compound 0.3162 µM): 1.32
relative viability (NCI-H2087; first compound 1 µM): 1.29
relative viability (NCI-H2126; first compound 0.01 µM): 1.23
relative viability (NCI-H2126; first compound 0.03162 µM): 1.19
relative viability (NCI-H2126; first compound 0.1 µM): 1.2
relative viability (NCI-H2126; first compound 0.3162 µM): 1.28
relative viability (NCI-H2126; first compound 1 µM): 1.26
relative viability (NCI-H2347; first compound 0.01 µM): 1.55
relative viability (NCI-H2347; first compound 0.03162 µM): 0.791
relative viability (NCI-H2347; first compound 0.1 µM): 0.767
relative viability (NCI-H2347; first compound 0.3162 µM): 0.616
relative viability (NCI-H2347; first compound 1 µM): 0.51
relative viability (NCI-H23; first compound 0.01 µM): 0.886
relative viability (NCI-H23; first compound 0.03162 µM): 1.09
relative viability (NCI-H23; first compound 0.1 µM): 0.976
relative viability (NCI-H23; first compound 0.3162 µM): 1.11
relative viability (NCI-H23; first compound 1 µM): 0.366
relative viability (NCI-H3122; first compound 0.01 µM): 0.911
relative viability (NCI-H3122; first compound 0.03162 µM): 0.905
relative viability (NCI-H3122; first compound 0.1 µM): 0.995
relative viability (NCI-H3122; first compound 0.3162 µM): 0.996
relative viability (NCI-H3122; first compound 1 µM): 0.996
relative viability (NCI-H441; first compound 0.01 µM): 1.3
relative viability (NCI-H441; first compound 0.03162 µM): 1.07
relative viability (NCI-H441; first compound 0.1 µM): 1.11
relative viability (NCI-H441; first compound 0.3162 µM): 1.19
relative viability (NCI-H441; first compound 1 µM): 0.955
relative viability (NCI-H596; first compound 0.01 µM): 0.993
relative viability (NCI-H596; first compound 0.03162 µM): 1.04
relative viability (NCI-H596; first compound 0.1 µM): 1.01
relative viability (NCI-H596; first compound 0.3162 µM): 0.923
relative viability (NCI-H596; first compound 1 µM): 0.744
relative viability (NCI-H647; first compound 0.01 µM): 1.23
relative viability (NCI-H647; first compound 0.03162 µM): 1.32
relative viability (NCI-H647; first compound 0.1 µM): 1.23
relative viability (NCI-H647; first compound 0.3162 µM): 1.19
relative viability (NCI-H647; first compound 1 µM): 0.326
relative viability (NCI-H650; first compound 0.01 µM): 1.13
relative viability (NCI-H650; first compound 0.03162 µM): 0.991
relative viability (NCI-H650; first compound 0.1 µM): 1.03
relative viability (NCI-H650; first compound 0.3162 µM): 1.03
relative viability (NCI-H650; first compound 1 µM): 1.05
relative viability (NCI-H727; first compound 0.01 µM): 0.989
relative viability (NCI-H727; first compound 0.03162 µM): 0.804
relative viability (NCI-H727; first compound 0.1 µM): 0.728
relative viability (NCI-H727; first compound 0.3162 µM): 0.889
relative viability (NCI-H727; first compound 1 µM): 0.466
relative viability (NCI-H838; first compound 0.01 µM): 1.1
relative viability (NCI-H838; first compound 0.03162 µM): 1.07
relative viability (NCI-H838; first compound 0.1 µM): 1.04
relative viability (NCI-H838; first compound 0.3162 µM): 0.992
relative viability (NCI-H838; first compound 1 µM): 0.553
